# From paper PMC11589570, “Critical assessment of LC3/GABARAP ligands used for degrader development and ligandability of LC3/GABARAP binding pockets” (Nature Communications, 2024)
# “And” between values parts separate entries of the source, which are not always exact repeats. Identical values can stand only once. Like-named read-outs stand apart in the source and are kept apart here.
# Legend:
# [1] = molecular target: T1, LC3B (Homo sapiens, UniProt Q9GZQ8); experiment: FP assay with 10O5- and 8F20-based dye-linked tracers 16 and 17; details: LC3B; compound 3 for tracer 17, compound 4 for tracer 16
# Text: The only experimental difference in our FP assay setup was the addition of 0.05% Tween-20, which is routinely used[27] to suppress unspecific binding of compounds to proteins.
# Fluorescence polarization assay utilizing tracers 16 and 17 for interaction studies with LC3A
# (upper panels) and LC3B (lower panels). The left panels depict protein titration measurements
# detergent in the buffer to suppress unspecific binding. Middle panels depict displacement
# Data were collected in technical
# triplicates with error bars expressing the SD (n=3).
# [2] = molecular target: LC3A (Homo sapiens, UniProt Q9H492); experiment: FP assay with Cy5-labelled p62 LIR tracer (protein titration and tracer displacement); format: binding; details: LC3A
# [3] = molecular target: T1, LC3B; details: LC3B:ligand molar ratio 1:2
structure (smiles),measurement,setting,value
"Cc1ccc(C(=O)N(CCCN)[C@@H](c2nc3cc(Cl)ccc3c(=O)n2Cc2ccccc2)C(C)C)cc1 [compound 3, (R)-N-(3-aminopropyl)-N-(1-(3-benzyl-7-chloro-4-oxo-3,4-dihydroquinazolin-2-yl)−2-methylpropyl)−4-methylbenzamide]",displacement of dye-linked tracer by parent compound,[1],no displacement
same,"normalized FP signal, p62 LIR tracer displacement","[2]; log10 concentration [M] -3.82391, listed as 8F20",97.3684 and 104.737
same,"normalized FP signal, p62 LIR tracer displacement","[2]; log10 concentration [M] -4.1549, listed as 8F20",102.105 and 103.947
same,"normalized FP signal, p62 LIR tracer displacement","[2]; log10 concentration [M] -4.60206, listed as 8F20",101.053 and 106.053
same,"normalized FP signal, p62 LIR tracer displacement","[2]; log10 concentration [M] -5, listed as 8F20",99.7368 and 100.789
same,"normalized FP signal, p62 LIR tracer displacement","[2]; log10 concentration [M] -5.30103, listed as 8F20",102.105 and 98.4211
same,"normalized FP signal, p62 LIR tracer displacement","[2]; log10 concentration [M] -5.69897, listed as 8F20",97.6316 and 96.0526
same,"normalized FP signal, p62 LIR tracer displacement","[2]; log10 concentration [M] -6.22185, listed as 8F20",102.632 and 94.2105
same,"normalized FP signal, p62 LIR tracer displacement",[2]; log10 concentration [M] -6.69897,101.053
same,"normalized FP signal, p62 LIR tracer displacement","[2]; log10 concentration [M] -6.69897, listed as 8F20",99.7368
same,"normalized FP signal, p62 LIR tracer displacement","[2]; log10 concentration [M] -7.30103, listed as 8F20",103.947 and 101.316
same,"normalized FP signal, p62 LIR tracer displacement",[2]; log10 concentration [M] -7.79588,98.4211
same,"normalized FP signal, p62 LIR tracer displacement","[2]; log10 concentration [M] -7.79588, listed as 8F20",93.9474
same,"normalized FP signal, p62 LIR tracer displacement",[2]; log10 concentration [M] -8.08092,102.105
same,"normalized FP signal, p62 LIR tracer displacement","[2]; log10 concentration [M] -8.08092, listed as 8F20",93.9474
same,CSP,[3]; LC3B residue A75,0.00171 ppm
same,CSP,[3]; LC3B residue A78,0.000906 ppm
same,CSP,[3]; LC3B residue A114,0.00141 ppm
same,CSP,[3]; LC3B residue D19,0.000707 ppm
same,CSP,[3]; LC3B residue D48,0.010 ppm
same,CSP,[3]; LC3B residue D56,0.00434 ppm
same,CSP,[3]; LC3B residue D104,0.002 ppm
same,CSP,[3]; LC3B residue D106,0.005 ppm
same,CSP,[3]; LC3B residue E14,0.00152 ppm
same,CSP,[3]; LC3B residue E18,0.003 ppm
same,CSP,[3]; LC3B residue E25,0.00212 ppm
same,CSP,[3]; LC3B residue E36,0.00158 ppm
same,CSP,[3]; LC3B residue E41,0.0011 ppm
same,CSP,[3]; LC3B residue E62,0.00213 ppm
same,CSP,[3]; LC3B residue E97,0.005 ppm
same,CSP,[3]; LC3B residue E100,0.004 ppm
same,CSP,[3]; LC3B residue E102,0.000721 ppm
same,CSP,[3]; LC3B residue E105,0.00232 ppm
same,CSP,[3]; LC3B residue E117,0.00224 ppm
same,CSP,[3]; LC3B residue F07,0.00141 ppm
same,CSP,[3]; LC3B residue F13,0.000721 ppm
same,CSP,[3]; LC3B residue F52,0.011 ppm
same,CSP,[3]; LC3B residue F108,0.006 ppm
same,CSP,[3]; LC3B residue F119,0.00255 ppm
same,CSP,"[3]; LC3B residue G40, estimated",0.002 ppm
same,CSP,[3]; LC3B residue G107,0.002 ppm
same,CSP,[3]; LC3B residue H27,0.00453 ppm
same,CSP,[3]; LC3B residue H57,0.00237 ppm
same,CSP,[3]; LC3B residue I23,0.00158 ppm
same,CSP,[3]; LC3B residue I31,0.00281 ppm
same,CSP,[3]; LC3B residue I34,0.00571 ppm
same,CSP,[3]; LC3B residue I35,0.00158 ppm
same,CSP,[3]; LC3B residue I64,0.00474 ppm
same,CSP,[3]; LC3B residue I66,0.000721 ppm
same,CSP,[3]; LC3B residue I67,0.003 ppm
same,CSP,[3]; LC3B residue K08,0.00364 ppm
same,CSP,[3]; LC3B residue K30,0.000762 ppm
same,CSP,[3]; LC3B residue K39,0.00212 ppm
same,CSP,[3]; LC3B residue K42,0.00255 ppm
same,CSP,[3]; LC3B residue K49,0.00665 ppm
same,CSP,[3]; LC3B residue K51,0.00356 ppm
same,CSP,[3]; LC3B residue K65,0.00216 ppm
same,CSP,[3]; LC3B residue K103,0.00165 ppm
same,CSP,[3]; LC3B residue L22,0.002 ppm
same,CSP,[3]; LC3B residue L44,0.006 ppm
same,CSP,[3]; LC3B residue L47,0.009 ppm
same,CSP,[3]; LC3B residue L53,0.007 ppm
same,CSP,[3]; LC3B residue L63,0.004 ppm
same,CSP,[3]; LC3B residue L71,0.000566 ppm
same,CSP,[3]; LC3B residue L73,0.000849 ppm
same,CSP,[3]; LC3B residue L109,0.00144 ppm
same,CSP,"[3]; LC3B residue M01, estimated",0.002 ppm
same,CSP,[3]; LC3B residue M60,0.00216 ppm
same,CSP,[3]; LC3B residue M111,0.00255 ppm
same,CSP,[3]; LC3B residue N59,0.009 ppm
same,CSP,[3]; LC3B residue N74,0.00173 ppm
same,CSP,[3]; LC3B residue N76,0.00171 ppm
same,CSP,"[3]; LC3B residue P02, estimated",0.002 ppm
same,CSP,"[3]; LC3B residue P28, estimated",0.005 ppm
same,CSP,"[3]; LC3B residue P32, estimated",0.003 ppm
same,CSP,"[3]; LC3B residue P45, estimated",0.005 ppm
same,CSP,"[3]; LC3B residue P55, estimated",0.006 ppm
same,CSP,[3]; LC3B residue Q09,0.00173 ppm
same,CSP,[3]; LC3B residue Q15,0.00158 ppm
same,CSP,[3]; LC3B residue Q26,0.003 ppm
same,CSP,[3]; LC3B residue Q43,0.00158 ppm
same,CSP,[3]; LC3B residue Q72,0.00243 ppm
same,CSP,[3]; LC3B residue Q77,0.0011 ppm
same,CSP,[3]; LC3B residue Q116,0.00181 ppm
same,CSP,[3]; LC3B residue R10,0.00165 ppm
same,CSP,[3]; LC3B residue R11,0.0024 ppm
same,CSP,[3]; LC3B residue R16,0.00181 ppm
same,CSP,[3]; LC3B residue R21,0.002 ppm
same,CSP,[3]; LC3B residue R24,0.000424 ppm
same,CSP,[3]; LC3B residue R37,0.00181 ppm
same,CSP,[3]; LC3B residue R68,0.00643 ppm
same,CSP,[3]; LC3B residue R69,0.00362 ppm
same,CSP,[3]; LC3B residue R70,0.00566 ppm
same,CSP,"[3]; LC3B residue S03, estimated",0.002 ppm
same,CSP,[3]; LC3B residue S61,0.00376 ppm
same,CSP,[3]; LC3B residue S96,0.004 ppm
same,CSP,[3]; LC3B residue S101,0.00148 ppm
same,CSP,[3]; LC3B residue S115,0.00122 ppm
same,CSP,[3]; LC3B residue T06,0.00255 ppm
same,CSP,[3]; LC3B residue T12,0.006 ppm
same,CSP,"[3]; LC3B residue T29, estimated",0.002 ppm
same,CSP,[3]; LC3B residue T50,0.008 ppm
same,CSP,[3]; LC3B residue T118,0.00152 ppm
same,CSP,[3]; LC3B residue V17,0.0011 ppm
same,CSP,[3]; LC3B residue V20,0.00281 ppm
same,CSP,[3]; LC3B residue V33,0.00472 ppm
same,CSP,[3]; LC3B residue V46,0.00449 ppm
same,CSP,[3]; LC3B residue V54,0.009 ppm
same,CSP,[3]; LC3B residue V58,0.00542 ppm
same,CSP,[3]; LC3B residue V98,0.00173 ppm
same,CSP,[3]; LC3B residue V112,0.00638 ppm
same,CSP,[3]; LC3B residue Y38,0.00165 ppm
same,CSP,[3]; LC3B residue Y99,0.00144 ppm
same,CSP,[3]; LC3B residue Y110,0.00214 ppm
same,CSP,[3]; LC3B residue Y113,0.00232 ppm
